The term pIC50 denotes −log10 of the IC50, conventionally taken in molar units.

pIC50: −log10 of the molar value.

The target of this assay is T1, cGMP-specific PDE (PDE5) (Homo sapiens, UniProt O76074).
T1 construct: obtained from human corpus cavernosum tissue or human platelets; from tissue; host or cells: human corpus cavernosum tissue or human platelets
The experiment in a line: In vitro PDE inhibitory activity, cGMP PDE5. The class given is biochemical. The conditions noted are these: enzyme from human corpus cavernosum tissue or human platelets; low substrate such that IC50≅Ki. The protocol: The compounds of the present invention are potent and selective cGMP PDE5 inhibitors. In vitro PDE inhibitory activities against cyclic guanosine 3′,5′-monophosphate (cGMP) and cyclic adenosine 3′,5′-monophosphate (cAMP) phosphodiesterases were determined by measurement of their IC50 values (the concentration of compound required for 50% inhibition of enzyme activity).
The required PDE enzymes were isolated from a variety of sources, including human corpus cavernosum, human platelets, human cardiac ventricle, human skeletal muscle and human and canine retina, essentially by the method of W. J. Thompson and M. M. Appleman (Biochem., 1971, 10, 311). In particular, the cGMP-specific PDE (PDE5) and the cGMP-inhibited cAMP PDE (PDE3) were obtained from human corpus cavernosum tissue or human platelets; the cGMP-stimulated PDE (PDE2) was obtained from human corpus cavernosum or human platelets; the calcium/calmodulin (Ca/CAM)-dependent PDE (PDE1) from human cardiac ventricle; the cAMP-specific PDE (PDE4) from recombinant clone or human skeletal muscle; and the photoreceptor PDE (PDE6) from canine or human retina. Phosphodiesterases 7-11 were generated from full length human recombinant clones transfected into SF9 cells.
Assays were performed either using a modification of the “batch” method of W. J. Thompson et al. (Biochem., 1979, 18, 5228) or using a scintillation proximity assay for the direct detection of AMP/GMP using a modification of the protocol described by Amersham plc under product code TRKQ7090/7100. In summary, the effect of PDE inhibitors was investigated by assaying a fixed amount of enzyme in the presence of varying inhibitor concentrations and low substrate, (cGMP or cAMP in a 3:1 ratio unlabelled to [^3H]-labeled at a conc ˜1/2 Km) such that IC50≅Ki. The final assay volume was made up to 102 μl with assay buffer [20 mM Tris-HCl pH 7.4, 5 mM MgCl2, 1 mg/ml bovine serum albumin]. Reactions were initiated with enzyme, incubated for 30-60 min at 30° C. to give <30% substrate turnover and terminated with 50 μl yttrium silicate SPA beads (containing 3 mM of the respective unlabelled cyclic nucleotide for PDEs 3, 9 and 11). Plates were re-sealed and shaken for 20 min, after which the beads were allowed to settle for 30 min in the dark and then counted on a TopCount plate reader (Packard, Meriden, Conn.). Radioactivity units were converted to % activity of an uninhibited control (100%), plotted against inhibitor concentration and inhibitor IC50 values obtained using the ‘Fit Curve’ Microsoft Excel extension or in-house equivalent.
In turn, `CCCOc1ccc(C(C)=O)cc1-c1nc2c(CC)n(CCCC(=O)O)nc2c(=O)[nH]1` [Example 12, 4-[5-(5-Acetyl-2-propoxyphenyl)-3-ethyl-7-oxo-6,7-dihydro-2H-pyrazolo[4,3-d]pyrimidin-2-yl]butanoic Acid] showed a pIC50 of 8.74.

`CCCCOc1ccc(C(C)=O)cc1-c1nc2c(CC)n(C3CN(C(C)C)C3)nc2c(=O)[nH]1` [Example 3] had a pIC50 of 7.64. Turning to `CCCOc1ccc(C(C)=O)cc1-c1nc2c(CC)n(CC(=O)OC(C)(C)C)nc2c(=O)[nH]1` [Example 6], the pIC50 is 8.66. Compound `CCCOc1ccc(C(C)=O)cc1-c1nc2c(CC)n(CC(=O)N(C)C)nc2c(=O)[nH]1` [Example 13, 2-[5-(5-Acetyl-2-propoxyphenyl)-3-ethyl-7-oxo-6,7-dihydro-2H-pyrazolo[4,3-d]pyrimidin-2-yl]-N,N-dimethylacetamide] had a pIC50 of 7.92.

Take `CCc1c2nc(-c3cc(C(C)=O)ccc3OCC(C)C)[nH]c(=O)c2nn1C1CN(C2CCC2)C1` [Example 2]: the pIC50 is 7.86.

For the origin of these results see US6784185B2, “Pharmaceutically active compounds” (Pfizer Inc., priority 2001, dated 2004).
